Assay results reported in the NIST ThermoML archive (doi:10.1016/j.jct.2012.08.010).

Assay: refractive index (Na D-line) (dimensionless); φn = volume fraction of the nth substance listed
Conditions: 101 kPa, Liquid, Standard Abbe refractometry

C=C[Si]1(C)O[Si](C)(C=C)O[Si](C)(C=C)O[Si](C)(C=C)O1 (stereo not given) [2,4,6,8-tetramethyl-2,4,6,8-tetravinylcycloterasiloxane] + Cc1cccc(C)c1
Conditions | refractive index
288.15 K, φ1 = 0.1301 | 1.4916
288.15 K, φ1 = 0.2524 | 1.48392
288.15 K, φ1 = 0.3347 | 1.47877
288.15 K, φ1 = 0.4159 | 1.47367
288.15 K, φ1 = 0.4865 | 1.46917
288.15 K, φ1 = 0.5517 | 1.46505
288.15 K, φ1 = 0.5985 | 1.46211
288.15 K, φ1 = 0.653 | 1.45885
288.15 K, φ1 = 0.6984 | 1.45591
288.15 K, φ1 = 0.7389 | 1.45344
288.15 K, φ1 = 0.776 | 1.45106
288.15 K, φ1 = 0.8087 | 1.44894
288.15 K, φ1 = 0.8405 | 1.44691
288.15 K, φ1 = 0.866 | 1.44524
288.15 K, φ1 = 0.8941 | 1.44346
288.15 K, φ1 = 0.9183 | 1.44189
288.15 K, φ1 = 0.941 | 1.44046
288.15 K, φ1 = 0.9804 | 1.43797
288.15 K, φ1 = 1 | 1.43674
298.15 K, φ1 = 0.1302 | 1.48641
298.15 K, φ1 = 0.2525 | 1.4788
298.15 K, φ1 = 0.3347 | 1.47372
298.15 K, φ1 = 0.416 | 1.46865
298.15 K, φ1 = 0.4866 | 1.46426
298.15 K, φ1 = 0.5518 | 1.46017
298.15 K, φ1 = 0.5986 | 1.45726
298.15 K, φ1 = 0.6531 | 1.454
298.15 K, φ1 = 0.6984 | 1.45105
298.15 K, φ1 = 0.7389 | 1.44845
298.15 K, φ1 = 0.7761 | 1.4461
298.15 K, φ1 = 0.8087 | 1.44408
298.15 K, φ1 = 0.8405 | 1.44212
298.15 K, φ1 = 0.866 | 1.44048
298.15 K, φ1 = 0.8941 | 1.4387
298.15 K, φ1 = 0.9183 | 1.43717
298.15 K, φ1 = 0.941 | 1.43574
298.15 K, φ1 = 0.9804 | 1.43324
298.15 K, φ1 = 1 | 1.43202
308.15 K, φ1 = 0.1302 | 1.48109
308.15 K, φ1 = 0.2525 | 1.47359
308.15 K, φ1 = 0.3348 | 1.46856
308.15 K, φ1 = 0.4161 | 1.46354
308.15 K, φ1 = 0.4867 | 1.45917
308.15 K, φ1 = 0.5519 | 1.45513
308.15 K, φ1 = 0.5987 | 1.45223
308.15 K, φ1 = 0.6532 | 1.44903
308.15 K, φ1 = 0.6985 | 1.4461
308.15 K, φ1 = 0.739 | 1.44355
308.15 K, φ1 = 0.7761 | 1.44125
308.15 K, φ1 = 0.8088 | 1.43919
308.15 K, φ1 = 0.8406 | 1.43727
308.15 K, φ1 = 0.8661 | 1.43566
308.15 K, φ1 = 0.8942 | 1.43391
308.15 K, φ1 = 0.9183 | 1.4324
308.15 K, φ1 = 0.941 | 1.43098
308.15 K, φ1 = 0.9804 | 1.4285
308.15 K, φ1 = 1 | 1.4273
318.15 K, φ1 = 0.1303 | 1.47582
318.15 K, φ1 = 0.2526 | 1.46841
318.15 K, φ1 = 0.3349 | 1.46342
318.15 K, φ1 = 0.4162 | 1.45843
318.15 K, φ1 = 0.4867 | 1.45413
318.15 K, φ1 = 0.5519 | 1.45015
318.15 K, φ1 = 0.5988 | 1.44727
318.15 K, φ1 = 0.6533 | 1.44383
318.15 K, φ1 = 0.6986 | 1.44117
318.15 K, φ1 = 0.7391 | 1.43865
318.15 K, φ1 = 0.7762 | 1.43639
318.15 K, φ1 = 0.8088 | 1.43434
318.15 K, φ1 = 0.8406 | 1.43244
318.15 K, φ1 = 0.8661 | 1.43085
318.15 K, φ1 = 0.8942 | 1.42911
318.15 K, φ1 = 0.9184 | 1.42763
318.15 K, φ1 = 0.9411 | 1.42622
318.15 K, φ1 = 0.9804 | 1.42377
318.15 K, φ1 = 1 | 1.42257
328.15 K, φ1 = 0.1303 | 1.47053
328.15 K, φ1 = 0.2526 | 1.46321
328.15 K, φ1 = 0.335 | 1.45825
328.15 K, φ1 = 0.4163 | 1.45333
328.15 K, φ1 = 0.4868 | 1.44908
328.15 K, φ1 = 0.552 | 1.44511
328.15 K, φ1 = 0.5988 | 1.44229
328.15 K, φ1 = 0.6533 | 1.43851
328.15 K, φ1 = 0.6986 | 1.43604
328.15 K, φ1 = 0.7391 | 1.43374
328.15 K, φ1 = 0.7762 | 1.43152
328.15 K, φ1 = 0.8089 | 1.42952
328.15 K, φ1 = 0.8407 | 1.42761
328.15 K, φ1 = 0.8661 | 1.42604
328.15 K, φ1 = 0.8942 | 1.42434
328.15 K, φ1 = 0.9184 | 1.42285
328.15 K, φ1 = 0.9411 | 1.42145
328.15 K, φ1 = 0.9804 | 1.41904
328.15 K, φ1 = 1 | 1.41785

C=C[Si]1(C)O[Si](C)(C=C)O[Si](C)(C=C)O[Si](C)(C=C)O1 (stereo not given) [2,4,6,8-tetramethyl-2,4,6,8-tetravinylcycloterasiloxane] + Cc1ccccc1C
Conditions | refractive index
288.15 K, φ1 = 0.1323 | 1.49868
288.15 K, φ1 = 0.2522 | 1.49036
288.15 K, φ1 = 0.3383 | 1.4844
288.15 K, φ1 = 0.4201 | 1.47866
288.15 K, φ1 = 0.4909 | 1.47364
288.15 K, φ1 = 0.5559 | 1.46898
288.15 K, φ1 = 0.6028 | 1.4657
288.15 K, φ1 = 0.6571 | 1.46179
288.15 K, φ1 = 0.7017 | 1.45858
288.15 K, φ1 = 0.7422 | 1.4556
288.15 K, φ1 = 0.7787 | 1.45298
288.15 K, φ1 = 0.8113 | 1.45065
288.15 K, φ1 = 0.842 | 1.44839
288.15 K, φ1 = 0.8679 | 1.44648
288.15 K, φ1 = 0.8958 | 1.44445
288.15 K, φ1 = 0.9198 | 1.44269
288.15 K, φ1 = 0.942 | 1.44102
288.15 K, φ1 = 0.9794 | 1.43827
288.15 K, φ1 = 1 | 1.43674
298.15 K, φ1 = 0.1324 | 1.49359
298.15 K, φ1 = 0.2524 | 1.48535
298.15 K, φ1 = 0.3385 | 1.47939
298.15 K, φ1 = 0.4203 | 1.4737
298.15 K, φ1 = 0.4911 | 1.46872
298.15 K, φ1 = 0.5561 | 1.46412
298.15 K, φ1 = 0.603 | 1.46081
298.15 K, φ1 = 0.6573 | 1.45693
298.15 K, φ1 = 0.7019 | 1.45375
298.15 K, φ1 = 0.7423 | 1.45081
298.15 K, φ1 = 0.7788 | 1.44819
298.15 K, φ1 = 0.8114 | 1.44585
298.15 K, φ1 = 0.8421 | 1.4436
298.15 K, φ1 = 0.868 | 1.44172
298.15 K, φ1 = 0.8958 | 1.43977
298.15 K, φ1 = 0.9199 | 1.43795
298.15 K, φ1 = 0.9421 | 1.4363
298.15 K, φ1 = 0.9794 | 1.43354
298.15 K, φ1 = 1 | 1.43202
308.15 K, φ1 = 0.1325 | 1.48836
308.15 K, φ1 = 0.2526 | 1.48017
308.15 K, φ1 = 0.3387 | 1.47425
308.15 K, φ1 = 0.4205 | 1.46859
308.15 K, φ1 = 0.4913 | 1.46366
308.15 K, φ1 = 0.5563 | 1.45909
308.15 K, φ1 = 0.6032 | 1.45581
308.15 K, φ1 = 0.6575 | 1.45196
308.15 K, φ1 = 0.7021 | 1.44881
308.15 K, φ1 = 0.7425 | 1.4459
308.15 K, φ1 = 0.779 | 1.44332
308.15 K, φ1 = 0.8116 | 1.441
308.15 K, φ1 = 0.8422 | 1.43878
308.15 K, φ1 = 0.8681 | 1.43691
308.15 K, φ1 = 0.8959 | 1.43489
308.15 K, φ1 = 0.9199 | 1.43317
308.15 K, φ1 = 0.9421 | 1.43154
308.15 K, φ1 = 0.9794 | 1.42881
308.15 K, φ1 = 1 | 1.4273
318.15 K, φ1 = 0.1326 | 1.48315
318.15 K, φ1 = 0.2527 | 1.47503
318.15 K, φ1 = 0.3389 | 1.46915
318.15 K, φ1 = 0.4207 | 1.46354
318.15 K, φ1 = 0.4915 | 1.45862
318.15 K, φ1 = 0.5565 | 1.45412
318.15 K, φ1 = 0.6034 | 1.45086
318.15 K, φ1 = 0.6577 | 1.44704
318.15 K, φ1 = 0.7022 | 1.44393
318.15 K, φ1 = 0.7426 | 1.44105
318.15 K, φ1 = 0.7791 | 1.43846
318.15 K, φ1 = 0.8117 | 1.4362
318.15 K, φ1 = 0.8423 | 1.43396
318.15 K, φ1 = 0.8682 | 1.43215
318.15 K, φ1 = 0.896 | 1.43012
318.15 K, φ1 = 0.92 | 1.4284
318.15 K, φ1 = 0.9421 | 1.42678
318.15 K, φ1 = 0.9794 | 1.42407
318.15 K, φ1 = 1 | 1.42257
328.15 K, φ1 = 0.1326 | 1.4779
328.15 K, φ1 = 0.2528 | 1.46957
328.15 K, φ1 = 0.339 | 1.46397
328.15 K, φ1 = 0.4208 | 1.45836
328.15 K, φ1 = 0.4916 | 1.45349
328.15 K, φ1 = 0.5567 | 1.44897
328.15 K, φ1 = 0.6035 | 1.44567
328.15 K, φ1 = 0.6578 | 1.44199
328.15 K, φ1 = 0.7023 | 1.43887
328.15 K, φ1 = 0.7427 | 1.43597
328.15 K, φ1 = 0.7792 | 1.43343
328.15 K, φ1 = 0.8118 | 1.43123
328.15 K, φ1 = 0.8423 | 1.42902
328.15 K, φ1 = 0.8683 | 1.42718
328.15 K, φ1 = 0.896 | 1.42526
328.15 K, φ1 = 0.92 | 1.42355
328.15 K, φ1 = 0.9422 | 1.42195
328.15 K, φ1 = 0.9794 | 1.41933
328.15 K, φ1 = 1 | 1.41785
